Assay results as given in patent US20110152089A1, “HERBICIDAL COMPOSITIONS COMPRISING FLUFENACET” (Bayer CropScience AG, priority 2009, published 2011).

What was measured:
[1] = test system: MATCH; assay: Different sowing depths, PE application, greenhouse (Table 7); type: in vivo, Matricaria chamomilla; settings: for activity MATCH 5 mm: sowing depth 5 mm; for activity MATCH 20 mm: sowing depth 20 mm
Protocol: (§1) In the standard design of the test, seeds of various broad-leaved weed and weed grass biotypes (origins) were sown in a 8-13 cm diameter pot filled with natural soil of a standard field soil (loamy silt; non-sterile) and covered with a covering soil layer of about 1 cm. The pots were then cultivated in a greenhouse (12-16 h of light, temperature day 20-22° C., night 15-18° C.) until the time of application. The pots were treated on a laboratory track sprayer with spray liquors comprising the compositions according to the invention, mixtures of the prior art or components used individually. Application of the active compounds or active compound combinations formulated as WG, WP, EC or otherwise was carried out at the appropriate growth stages of the plants. The application rate for the spray application was 100-600 l of water/ha. After the treatment, the plants were returned to the greenhouses.
(§2) About 3 weeks after the application, the soil action or/and foliar action was assessed visually according to a scale of 0-100% in comparison to an untreated comparative group: 0%=no noticeable effect compared to the untreated comparative group; 100%=full effect compared to the untreated comparative group.
(§3) (notes: the term “seeds” also includes vegetative propagation forms such as, for example, rhizome pieces; abbreviations used: h light=hours of illumination, g of AS/ha=gram of active substance per hectare, l/ha=liter per hectare, S=sensitive, R=resistant) • 1. Pre-emergence action against weeds: seeds of various broad-leaved weed and weed grass biotypes (origins) were sown in a 8-13 cm diameter pot filled with natural soil of a standard field soil (loamy silt; non-sterile) and covered with a covering soil layer of about 1 cm. The pots were then cultivated in a greenhouse (12-16 h of light, temperature day 20-22° C., night 15-18° C.) until the time of application. The pots were treated at the BBCH stage 00-10 of the seeds/plants on a laboratory track sprayer with spray liquors comprising the compositions according to the invention, mixtures or components used individually, as WG, WP, EC or other formulations. The application rate for the spray application was 100-600 l of water/ha. After the treatment, the plants were returned to the greenhouses and, when required, treated with fertilizer and watered. • 2. Post-emergence action against weeds: seeds of various broad-leaved weed and weed grass biotypes (origins) were sown in a 8-13 cm diameter pot filled with natural soil of a standard field soil (loamy silt; non-sterile) and covered with a covering soil layer of about 1 cm. The pots were then cultivated in a greenhouse (12-16 h of light, temperature day 20-22° C., night 15-18° C.) until the time of application. The pots were treated at various BBCH stages between 11-25 of the seeds/plants, i.e. generally between two to three weeks after the start of the cultivation, on a laboratory track sprayer with spray liquors comprising the compositions according to the invention, mixtures or components used individually, as WG, WP, EC or other formulations. The application rate for the spray application was 100-600 l of water/ha. After the treatment, the plants were returned to the greenhouses and, when required, treated with fertilizer and watered. • 3. Pre-emergence action against weeds with and without incorporation of active compound: seeds of various broad-leaved weed and weed grass biotypes (origins) were sown in a 8-13 cm diameter pot filled with natural soil of a standard field soil (loamy silt; non-sterile). […]

[2] = test system: HORVS; assay: PO application, crop selectivity, greenhouse (Table 2); type: in vivo, Hordeum vulgare, summer barley; settings: g of AS/ha: (A) 120, (B) 1200, (C) 140, (A)+(B)+(C) 120 + 1200 + 140, visual, about 3 weeks after application
Protocol: as §1, §2
(notes: the term “seeds” also includes vegetative propagation forms such as, for example, rhizome pieces; abbreviations used: h light=hours of illumination, g of AS/ha=gram of active substance per hectare, l/ha=liter per hectare, S=sensitive, R=resistant) • 1. Pre-emergence action against weeds: seeds of various broad-leaved weed and weed grass biotypes (origins) were sown in a 8-13 cm diameter pot filled with natural soil of a standard field soil (loamy silt; non-sterile) and covered with a covering soil layer of about 1 cm. The pots were then cultivated in a greenhouse (12-16 h of light, temperature day 20-22° C., night 15-18° C.) until the time of application. […]

[3] = test system: AVEFA; assay: PE application vs pre-sowing application, greenhouse (Table 3); type: in vivo, Avena fatua; settings: g of AS/ha: (A) 90, (B) 300, (C) 140, (A)+(B)+(C) 90 + 300 + 140
Protocol: as §1, §2
(§4) (notes: the term “seeds” also includes vegetative propagation forms such as, for example, rhizome pieces; abbreviations used: h light=hours of illumination, g of AS/ha=gram of active substance per hectare, l/ha=liter per hectare, S=sensitive, R=resistant) • 1. Pre-emergence action against weeds: seeds of various broad-leaved weed and weed grass biotypes (origins) were sown in a 8-13 cm diameter pot filled with natural soil of a standard field soil (loamy silt; non-sterile) and covered with a covering soil layer of about 1 cm. The pots were then cultivated in a greenhouse (12-16 h of light, temperature day 20-22° C., night 15-18° C.) until the time of application. The pots were treated at the BBCH stage 00-10 of the seeds/plants on a laboratory track sprayer with spray liquors comprising the compositions according to the invention, mixtures or components used individually, as WG, WP, EC or other formulations. The application rate for the spray application was 100-600 l of water/ha. After the treatment, the plants were returned to the greenhouses and, when required, treated with fertilizer and watered. • 2. Post-emergence action against weeds: seeds of various broad-leaved weed and weed grass biotypes (origins) were sown in a 8-13 cm diameter pot filled with natural soil of a standard field soil (loamy silt; non-sterile) and covered with a covering soil layer of about 1 cm. The pots were then cultivated in a greenhouse (12-16 h of light, temperature day 20-22° C., night 15-18° C.) until the time of application. […]

[4] = test system: VIOAR; assay: PE soil application vs incorporation into the soil, greenhouse (Table 1); type: in vivo, Viola arvensis; settings: g of AS/ha: (A) 90, (B) 300, (C) 70, (A)+(B)+(C) 90 + 300 + 70, visual, about 3 weeks after application
Protocol: as §1, §2, §4

[5] = test system: MATCH; assay: PE application with different irrigation, greenhouse (Table 4); type: in vivo, Matricaria chamomilla; settings: g of AS/ha: (A) 90, (B) 300, (C) 140, (A)+(B)+(C) 90 + 300 + 140
Protocol: as §1, §2, §3

[6] = test system: HORVS; assay: PE soil application vs incorporation into the soil, crop selectivity, greenhouse (Table 1); type: in vivo, Hordeum vulgare, summer barley; settings: g of AS/ha: (A) 90, (B) 300, (C) 70, (A)+(B)+(C) 90 + 300 + 70, visual, about 3 weeks after application
Protocol: as §1, §2, §3

[7] = test system: HORVS; assay: Different sowing depths, PE application, crop selectivity, greenhouse (Table 7); type: in vivo, Hordeum vulgare, summer barley; settings: for activity HORVS 5 mm (crop plant): sowing depth 5 mm; for activity HORVS 20 mm (crop plant): sowing depth 20 mm
Protocol: as §1, §2, §3

[8] = g of AS/ha: (A) 90, (B) 300, (C) 140, (A)+(B)+(C) 90 + 300 + 140
[9] = application 7 days prior to sowing
[10] = g of AS/ha: (A) 90, (B) 300, (C) 140, (A)+(B)+(C) 90 + 300 + 140, listed as trifluralin

Row | Compound | activity MATCH 5 mm [1, 8] [%] | activity MATCH 20 mm [1, 8] [%] | activity HORVS (crop plant) [2] [%] | activity AVEFA ([3]; PE application) [%] | activity AVEFA [3, 9] [%] | activity VIOAR ([4]; PE application) [%] | activity VIOAR ([4]; incorporation into the soil) [%] | activity MATCH ([5]; irrigation from above) [%] | activity MATCH ([5]; irrigation from below) [%] | activity HORVS (crop plant) ([6]; PE application) [%] | activity HORVS (crop plant) ([6]; incorporation into the soil) [%] | activity HORVS 5 mm (crop plant) [7, 8] [%] | activity HORVS 20 mm (crop plant) [7, 8] [%] | activity MATCH 5 mm [1, 10] [%] | activity MATCH 20 mm [1, 10] [%] | activity HORVS 5 mm (crop plant) [7, 10] [%] | activity HORVS 20 mm (crop plant) [7, 10] [%]
1 | CSc1nnc(C(C)(C)C)c(=O)n1N [(C) metribuzin, 4-amino-6-(1,1-dimethyl-ethyl)-3-(methylthio)-1,2,4-triazin-5-(4H)-one] | 100 | 70 | 70 | 70 | 0 | 0 | 10 | 0 | 60 | 30 | 70 | 70 | 30 |  |  |  | 
2 | CCCN(CCC)c1c([N+](=O)[O-])cc(C(F)(F)F)cc1[N+](=O)[O-] [(B) trifluralin, 2,6-dinitro-N,N-dipropyl-4-(trifluoromethyl)benzenamine] | 0 | 30 | 20 | 0 | 60 | 50 | 0 | 0 | 40 | 0 | 35 | 25 | 20 | 100 | 70 | 70 | 30
